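Cultured in 96-well plates, cells were exposed to test compound for 48 hours across five concentrations. The concentration for 50% growth inhibition is given as GI50. TGI marks complete inhibition of growth.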
Legend:
Assay in all cases: DTP human tumour cell line panel, 48 h
UACC-257 melanoma = tested on: UACC-257 melanoma
HL-60(TB) leukemia = tested on: HL-60(TB) leukemia
EKVX NSCLC = tested on: EKVX NSCLC
NCI-H460 lung = tested on: NCI-H460 lung
ACHN renal = tested on: ACHN renal
SN12C renal = tested on: SN12C renal
UACC-62 melanoma = tested on: UACC-62 melanoma
U251 CNS = tested on: U251 CNS
TK-10 renal = tested on: TK-10 renal
MALME-3M melanoma = tested on: MALME-3M melanoma

Row | SMILES | TGI (UACC-257 melanoma) [µM] | TGI (HL-60(TB) leukemia) [µM] | TGI (EKVX NSCLC) [µM] | TGI (NCI-H460 lung) [µM] | TGI (ACHN renal) [µM] | TGI (SN12C renal) [µM] | TGI (UACC-62 melanoma) [µM] | TGI (U251 CNS) [µM] | TGI (TK-10 renal) [µM] | TGI (MALME-3M melanoma) [µM] | GI50 (UACC-257 melanoma) [µM] | GI50 (HL-60(TB) leukemia) [µM] | GI50 (EKVX NSCLC) [µM] | GI50 (NCI-H460 lung) [µM] | GI50 (ACHN renal) [µM] | GI50 (SN12C renal) [µM] | GI50 (UACC-62 melanoma) [µM] | GI50 (U251 CNS) [µM] | GI50 (TK-10 renal) [µM] | GI50 (MALME-3M melanoma) [µM]
1 | C[C@]12CC(C#N)C(=O)C(O)=C1CC[C@@H]1C2CC[C@@]2(C)C1CC[C@@H]2O (stereo not given in full) | > 100 | > 100 | > 100 | > 100 | > 100 | > 100 | 83.8 | > 100 | > 100 | > 100 |  |  |  |  |  |  |  |  |  | 
2 | NC1=NC(c2ccccc2)CC(c2cc(Cl)cc(Br)c2O)=N1 (stereo not given) | 36.2 | 13.2 | 28.2 | 19.9 | 31.5 | 30.3 | 24.6 | 26.4 | 37.3 | 15.9 |  |  |  |  |  |  |  |  |  | 
3 | CC1Cc2c(N)nc(N3CCOCC3)nc2NC1=O (stereo not given) | > 100 | > 100 | > 100 | > 100 | > 100 | > 100 | > 100 | > 100 | > 100 | > 100 |  |  |  |  |  |  |  |  |  | 
4 | CCCC1C(=O)C(CC)Cc2c(OC)ccc(OC)c21 (stereo not given) | > 100 | > 100 | > 100 | > 100 | > 100 | > 100 | > 100 | > 100 | > 100 | > 100 |  |  |  |  |  |  |  |  |  | 
5 | CCN(CC)C(=O)CNC(=O)OC(C)(C)C | > 100 | > 100 | > 100 | > 100 | > 100 | > 100 | > 100 | > 100 | > 100 | > 100 |  |  |  |  |  |  |  |  |  | 
6 | COc1ccccc1N1CCN(C(=O)c2ccc(NS(=O)(=O)c3cccc4cccnc34)cc2)CC1 | > 100 | > 100 | > 100 | > 100 | > 100 | > 100 | > 100 | > 100 | > 100 | > 100 | > 100 | > 100 | > 100 | > 100 | > 71 | > 100 | > 100 | 78.2 | > 64.1 | > 100
7 | O=C1CC2C(=O)C1C(C(=O)O)C2C(=O)O (stereo not given) | > 100 | > 100 | > 100 | > 100 | > 100 | > 100 | > 100 | > 100 | > 100 | > 100 |  |  |  |  |  |  |  |  |  | 
8 | CCCCNC(=O)Oc1ccc2c(=O)c3sc4c(=O)c5ccccc5c(=O)c4c3c(=O)c2c1 | 0.7 | > 100 | 3.57 | 0.395 | 2.18 | 0.35 | 0.336 | 2.26 | 3.78 | 0.273 | 0.237 | 3.11 | 1.38 | 0.195 | 0.874 | 0.174 | 0.17 | 1.02 | 2.19 | 0.117
9 | CC1OC(O[C@H]2/C=C/C=C/C=C/C=C/C=C/C=C/C=C/[C@H](C)[C@@H](O)[C@@H](C)[C@H](C)OC(=O)C[C@H](O)C[C@H](O)CC[C@@H](O)[C@H](O)C[C@H](O)C[C@]3(O)C[C@H](O)[C@@H](C(=O)O)[C@H](C2)O3)C(O)C(N)C1O (stereo not given in full) | 40.4 | 30.6 | 27.8 | 40.4 | 20.5 | 9.15 | 43.9 | 40.6 | 46.3 | 15.3 | 12.2 | 3.29 | 11.1 | 19.1 | 6.47 | 2.01 | 21.8 | 14.3 | 27.2 | 5.47
10 | CC(C)c1cccc(C(C)C)c1N=C(N)C#N | > 79.6 | > 65.3 | > 100 | > 62.5 | > 100 | > 100 | 99.1 | > 93.2 | > 100 | > 100 |  |  |  |  |  |  |  |  |  | 
11 | COc1cc(C)[nH]c(=O)c1CN1CCc2c(Cl)cc([C@H](OC)C3COC3)c(Cl)c2C1=O | > 100 | > 100 | > 100 | > 100 | > 100 | > 100 | > 100 | > 100 | > 100 | > 100 | > 100 | > 100 | > 100 | > 100 | > 100 | > 100 | > 100 | > 100 | > 100 | > 100
12 | O=C(Nc1ccc(Cl)cc1)c1cc2cc(F)ccc2cc1O | 5.2 | 6.78 | 22.3 | > 100 | 7.07 | > 100 | 23.6 | 6.54 | 58.9 | 4.11 | 1.34 | 1.22 | 2.62 | 0.882 | 1.67 | 1.78 | 0.622 | 1.1 | 2.39 | 0.613
13 | C=C1SC(=Nc2ccccc2Cl)N(C(=O)c2sc3ccccc3c2Cl)C1(C)C | > 100 | > 100 | 18.2 | > 57.1 | > 46 | > 100 | > 100 | > 100 | 37.1 | 34.6 | 29.2 | 9.3 | 2.38 | 4.14 | 3.24 | 12.6 | 9.24 | 4.12 | 5.57 | 2.01
14 | N#Cc1nn(C2OC(COC(=O)c3ccccc3)C(OC(=O)c3ccccc3)C2OC(=O)c2ccccc2)c2nc[nH]c(=O)c12 (stereo not given) | > 100 | 83.4 | > 100 | > 100 | > 100 | > 100 | > 100 | > 100 | > 100 | 90.4 |  |  |  |  |  |  |  |  |  | 
15 | CC(=O)O[C@H]1CCC2[C@@H]3CCC4Nc5c(cnn5-c5ccccc5)C[C@]4(C)C3CC[C@@]21C (stereo not given in full) | 23.7 | 32.9 | 16.5 | 42.1 | 48.1 | 41.4 | 22.6 | 91.5 | 50.3 | 35.1 |  |  |  |  |  |  |  |  |  | 
16 | c1ccc2c(c1)nnn2CNc1ccc(N2CCOCC2)cc1 | > 100 | > 100 | > 100 | > 100 | > 100 | > 100 | > 100 | > 100 | > 100 | > 100 |  |  |  |  |  |  |  |  |  | 
